Here are results for 14 molecules from patent US11224224B2, “Thiobenzoimidazole as fungicides” (REDAG CROP PROTECTION LTD, priority 2017, dated 2022).

Holding throughout (assay type): cell-based
Assay [1] has as its system Pythium ultimum. In words: Amended agar assay (PDA), colony growth. The following applies: Globisporangium ultimum; read-out: % control Pythium ultimum 2 ppm.
The test system of the next assay is Phytophthora cactorum. In words: 96 well plate test (amended agar with spores). The conditions noted are these: 96 well plate, 20, 2, 0.2 and 0.02 ppm, 1% PDA, 2 to 3 days (cells marked *), read-out: EC50 Phytophthora spp. (*96 well plate format vs. Phytophthora cactorum). The protocol:
Compounds were screened in 96 well plates with 10 compounds per plate. Each compound was screened using agar amended to 20, 2, 0.2 and 0.02 ppm, with Proline at 50 and 10 ppm and 0.2% DMSO used as controls. Each test concentration and standard was replicated twice on a plate. Compounds were screened against Phytophthora cactorum. The agar used in the test is a 1% PDA. 1000 spores/mL agar were added to the appropriate agar.
A ×10 stock solution in 2% DMSO was produced for each dose i.e. 200, 20, 2 and 0.2 ppm, and 10 μl of this added to the appropriate wells on the plate. An equivalent amount of 2% DMSO and Proline stock at 500 and 100 ppm were added for the controls. To each well 90 μl of the appropriate agar spore suspension was added to give the required final well concentrations. Plates were incubated at room temperature (18° C.) and assessed after 2 to 3 days. The amount of pathogen growth in each well was compared to the DMSO controls and an EC50 concentration was calculated. The results are provided in Table 1 in which G represents an EC50 above 20 ppm, F represents an EC50 of 1-20 ppm and E represents an EC50 less than 1 ppm.

Another assay deals with oomycete plant pathogens. In words: Fungicidal activity testing, overall summary. The conditions noted are these: summary statement on Table 1. The protocol: The activity of compounds of the invention was assessed by testing against certain oomycete plant pathogens and representative data are presented in Table 1.
Assay [2] deals with Pythium ultimum. In words: Amended agar assay (PDA), colony growth. The conditions noted are these: Globisporangium ultimum; 20 ppm in amended PDA, 18° C., reduction in colony growth vs control plate. As to the method: (§1) Testing was carried out on potato dextrose agar (PDA) amended with each compound at a test concentration of 20 ppm. Amended agar was poured into three replicate 9 cm petri dishes. Each replicate dish was inoculated in the centre with a 5 mm agar plug taken from the leading edge of a culture aged between 2 and 7 days old; the age of the culture was dependant on the growth rate of the pathogen being tested. The test pathogens were Pythium ultimum and Phytophthora cinnamomi. Plates were incubated at 18° C. and the diameter of each colony measured before growth on the fastest growing plate reached the plate edge. This varied between 2 and 7 days depending on the growth rate of test pathogens. The % reduction in colony growth compared to the control plate was calculated for each pathogen. The results are provided in Table 1, in which D represents no control detected at this concentration; C represents up to 50% control; B from 50 to 99% control; and A represents a control of greater than 99%, i.e. no detectable colony growth.
(§2) Alternatively, or in addition, the same assay was conducted at descending test concentrations with 5-fold dilutions typically down to 0.032 ppm though sometimes as low as 0.00026 ppm, and an EC50 (the concentration at which 50% control would be achieved) was determined. The results are provided in Table 1 in which G represents an EC50 above 20 ppm, F represents an EC50 of 1-20 ppm and E represents and EC50 less than 1 ppm.

Another assay relates to Phytophthora cinnamomi. In words: Amended agar assay (PDA), colony growth. The conditions noted are these: Phytophthora cinnamomi; 20 ppm in amended PDA, 18° C., reduction in colony growth vs control plate; read-out: % control Phytophthora spp. 20 ppm. As to the method:
as §1, §2

Molecules are shown by their SMILES. In brackets after ≈: the same amount, converted by molar mass.

Consider `COc1cc(F)cc2c1nc(SCc1cccc(NC(=O)OC(C)(C)C)n1)n2-c1nnnn1C` [Example 84], for which the inhibition of growth at 2 ppm with Pythium ultimum [1] was more than 99%. Further, in the assay with Phytophthora cactorum, the EC50 (in general, the concentration giving half of the maximal effect) lay in the range of 1 to 20 µg/mL (≈ 2.06 to 41.1 µM). The “control over the pathogens tested” value in the assay on oomycete plant pathogens is listed as “good to excellent control”.

On to `Clc1cncnc1-n1c(SCc2ccccn2)nc2ccccc21` [Example 59, 1-(5-Chloropyrimidin-4-yl)-2-((pyridin-2-ylmethyl)thio)-1H-benzo[d]imidazole], for which the inhibition of growth at 20 ppm in the assay on Pythium ultimum [2] and with Phytophthora cinnamomi was more than 99% each time. In the assay on Pythium ultimum [1], the inhibition of growth at 2 ppm was more than 99%. Further, the EC50 in the assay on Phytophthora cactorum is 1 to 20 µg/mL (≈ 2.83 to 56.5 µM). Moreover, the “control over the pathogens tested” value in the assay on oomycete plant pathogens is given as “good to excellent control”.

For `COc1ccnc(CSc2nc3ccccc3n2-c2nnnn2C)c1` [Example 42], in the assay on Pythium ultimum [1], the inhibition of growth at 2 ppm is more than 99%. Moreover, in the assay on Phytophthora cactorum, the EC50 lay within 1 to 20 µg/mL (≈ 2.83 to 56.6 µM). In the assay on oomycete plant pathogens, the “control over the pathogens tested” value is “good to excellent control”.

As to `Cn1nnnc1-n1c(SCc2ccccn2)nc2cc(Cl)ccc21` [Example 67], in the assay on Pythium ultimum [1], the inhibition of growth at 2 ppm is more than 99%. In addition, the EC50 in the assay on Phytophthora cactorum was 1 to 20 µg/mL (≈ 2.79 to 55.9 µM). For the same molecule, the “control over the pathogens tested” value in the assay on oomycete plant pathogens is given as “good to excellent control”.

As for `Cn1nnnc1-n1c(SCc2nccs2)nc2ccccc21` [Example 34], in the assay on Pythium ultimum [2], the inhibition of growth at 20 ppm was more than 99%. Moreover, the inhibition of growth at 2 ppm with Pythium ultimum [1] was in the range of 50 to 99%. Moreover, the concentration giving a half-maximal response (EC50) in the assay on Phytophthora cactorum fell in the range of 1 to 20 µg/mL (≈ 3.04 to 60.7 µM). Further, the “control over the pathogens tested” value in the assay with oomycete plant pathogens is listed as “good to excellent control”.

For `Cc1ccnc(CSc2nc3ccccc3n2-c2nnnn2C)c1` [Example 37], the inhibition of growth at 20 ppm in the assay with Pythium ultimum [2] is more than 99%. For the same molecule, in the assay on Pythium ultimum [1], the inhibition of growth at 2 ppm lay within 50 to 99%. For the same molecule, the EC50 in the assay on Phytophthora cactorum was in the range of 1 to 20 µg/mL (≈ 2.96 to 59.3 µM). Moreover, in the assay with oomycete plant pathogens, the “control over the pathogens tested” value is on record as “good to excellent control”.

In the case of `Cc1ccc(CSc2nc3ccccc3n2-c2nnnn2C)nc1` [Example 69], in the assay with Pythium ultimum [1], the inhibition of growth at 2 ppm was more than 99%. Moreover, the EC50 in the assay on Phytophthora cactorum lay in the range of 1 to 20 µg/mL (≈ 2.96 to 59.3 µM). Further, the “control over the pathogens tested” value in the assay on oomycete plant pathogens is recorded as “good to excellent control”.

On to `COc1ccnc(CSc2nc3ccccc3n2-c2nnnn2C)c1OC` [Example 39], for which the inhibition of growth at 2 ppm in the assay with Pythium ultimum [1] is more than 99%. Further, the EC50 in the assay with Phytophthora cactorum was in the range of 1 to 20 µg/mL (≈ 2.61 to 52.2 µM). In the assay on oomycete plant pathogens, the “control over the pathogens tested” value was “good to excellent control”.

Turning to `COCCCOc1ccnc(CSc2nc3ccccc3n2-c2nnnn2C)c1C` [Example 40], in the assay on Pythium ultimum [1], the inhibition of growth at 2 ppm was in the range of 50 to 99%. Besides, in the assay on Phytophthora cactorum, the EC50 was 1 to 20 µg/mL (≈ 2.35 to 47 µM). The “control over the pathogens tested” value in the assay with oomycete plant pathogens is given as “good to excellent control”.

Turning to `Cn1nnnc1-n1c(SCc2cccc(NC(=O)COc3ccccc3)n2)nc2ccc(F)cc21` [Example 47], the inhibition of growth at 2 ppm in the assay on Pythium ultimum [1] is more than 99%. Also, in the assay with Phytophthora cactorum, the EC50 is less than 1 µg/mL. The “control over the pathogens tested” value in the assay with oomycete plant pathogens is on record as “good to excellent control”.

For `Cn1nnnc1-n1c(SCc2ccc(Br)cn2)nc2ccccc21` [Example 75], in the assay on Pythium ultimum [1], the inhibition of growth at 2 ppm is more than 99%. The EC50 in the assay on Phytophthora cactorum lay within 1 to 20 µg/mL (≈ 2.49 to 49.7 µM). Also, the “control over the pathogens tested” value in the assay with oomycete plant pathogens is recorded as “good to excellent control”.

`Cn1nnnc1-n1c(SCc2nccs2)nc2ccc(F)cc21` [Example 48]: the inhibition of growth at 2 ppm in the assay with Pythium ultimum [1] is more than 99%. For the same molecule, the EC50 in the assay on Phytophthora cactorum lay in the range of 1 to 20 µg/mL (≈ 2.88 to 57.6 µM). Also, the “control over the pathogens tested” value in the assay on oomycete plant pathogens is “good to excellent control”.

On to `Cn1nnnc1-n1c(SCc2cc(C(F)(F)F)ccn2)nc2ccccc21` [Example 78], for which the inhibition of growth at 2 ppm in the assay with Pythium ultimum [1] was more than 99%. Further, the EC50 with Phytophthora cactorum fell in the range of 1 to 20 µg/mL (≈ 2.56 to 51.1 µM). The “control over the pathogens tested” value in the assay on oomycete plant pathogens was “good to excellent control”.

Consider `Cn1nnnc1-n1c(SCc2cccc(NC(=O)C3CC3)n2)nc2c(Cl)cccc21` [Example 63, N-(6-(((4-Chloro-1-(1-methyl-1H-tetrazol-5-yl)-1H-benzo[d]imidazol-2-yl)thio)methyl)pyridin-2-yl)cyclopropanecarboxamide], for which, in the assay with Pythium ultimum [1], the inhibition of growth at 2 ppm is more than 99%. The EC50 in the assay on Phytophthora cactorum was in the range of 1 to 20 µg/mL (≈ 2.27 to 45.4 µM). Also, the “control over the pathogens tested” value with oomycete plant pathogens is “good to excellent control”.
